Results as given in ChEMBL document CHEMBL5260810, “Inhibition of bromodomain-containing protein 9 for the prevention of epigenetically-defined drug resistance” (Bioorg Med Chem Lett, 2017).
Active and inactive are the calls of the source. No cut-off for these calls is given here.

Legend:
PC-9 = test: Antiproliferative activity against human PC-9 cells assessed as reduction in colony formation at 1 uM supplemented with fresh medium containing compound every 3 days by MTT staining based assay; type: functional, cell-based; details: time 9.0 day
[1] = target: TGF-beta receptor type-1 (Homo sapiens) (UniProt P36897); test: Inhibition of TGFBR1 (unknown origin) at 1 uM relative to control
[2] = Cytotoxicity against human OCI-M2 cells measured after 3 days; type: functional, cell-based; details: OCI-M2, 72 h
SET-2 = test: Cytotoxicity against human SET2 cells measured after 3 days; type: functional, cell-based; details: SET-2, 72 h
HepG2 = test: Cytotoxicity against human HepG2 cells measured after 3 days; type: functional, cell-based; details: HepG2, 72 h
[3] = Cytotoxicity against human PL-21 cells measured after 3 days; type: functional, cell-based; details: PL-21, 72 h
TMD8 = test: Cytotoxicity against human TMD8 cells measured after 3 days; type: functional, cell-based; details: TMD8, 72 h
[4] = Cytotoxicity against human NCE-G 130 cells measured after 3 days; type: functional, cell-based; details: NCE-G 130, 72 h
[5] = Cytotoxicity against human Sc-1 cells measured after 3 days; type: functional, cell-based; details: SC-1, 72 h
BJAB = test: Cytotoxicity against human BJAB cells measured after 3 days; type: functional, cell-based; details: 72 h
[6] = Cytotoxicity against human KPL-4 cells measured after 3 days; type: functional, cell-based; details: KPL4, 72 h
CAMA-1 = test: Cytotoxicity against human CAMA-1 cells measured after 3 days; type: functional, cell-based; details: CAMA-1, 72 h
HCC1143 = test: Cytotoxicity against human HCC1143 cells measured after 3 days; type: functional, cell-based; details: HCC1143, 72 h
MDA-MB-361 = test: Cytotoxicity against human MDA-MB-361 cells measured after 3 days; type: functional, cell-based; details: MDA-MB-361, 72 h
MCF-10A = test: Cytotoxicity against human MCF-10A cells measured after 3 days; type: functional, cell-based; details: 72 h
[7] = Cytotoxicity against human 59M cells measured after 3 days; type: functional, cell-based; details: 72 h
BaF3 = test: Cytotoxicity against mouse BaF3 cells measured after 8 days; type: functional, cell-based; details: BaF3, 192 h
[8] = Cytotoxicity against human KMS-34 cells measured after 8 days; type: functional, cell-based; details: KMS-34, 192 h
KG-1 = test: Cytotoxicity against human KG-1 cells measured after 8 days; type: functional, cell-based; details: KG-1, 192 h
143B = test: Cytotoxicity against human 143B cells measured after 8 days; type: functional, cell-based; details: 192 h
[9] = Cytotoxicity against human NCE-G 141 cells measured after 8 days; type: functional, cell-based; details: NCE-G 141, 192 h
GI-1 = test: Cytotoxicity against human GI-1 cells measured after 8 days; type: functional, cell-based; details: GI-1, 192 h
OCI-Ly10 = test: Cytotoxicity against human OCI-Ly10 cells measured after 8 days; type: functional, cell-based; details: OCI-Ly10, 192 h
SU-DHL-8 = test: Cytotoxicity against human SU-DHL-8 cells measured after 8 days; type: functional, cell-based; details: SU-DHL-8, 192 h
[10] = Cytotoxicity against human COV318 cells measured after 8 days; type: functional, cell-based; details: COV318, 192 h
KURAMOCHI = test: Cytotoxicity against human KURAMOCHI cells measured after 8 days; type: functional, cell-based; details: 192 h
OAW-42 = test: Cytotoxicity against human OAW-42 cells measured after 8 days; type: functional, cell-based; details: OAW-42, 192 h
MDA-MB-453 = test: Cytotoxicity against human MDA-MB-453 cells measured after 8 days; type: functional, cell-based; details: MDA-MB-453, 192 h
SW982 = test: Cytotoxicity against human SW982 cells measured after 8 days; type: functional, cell-based; details: SW982, 192 h
[11] = Cytotoxicity against human OVSAHO cells measured after 8 days; type: functional, cell-based; details: 192 h
[12] = Cytotoxicity against human JJ012 cells measured after 8 days; type: functional, cell-based; details: JJ012, 192 h
[13] = Cytotoxicity against human BT-B cells measured after 8 days; type: functional, cell-based; details: 192 h
[14] = Cytotoxicity against human PaTu 8902 cells measured after 8 days; type: functional, cell-based; details: PaTu 8902, 192 h
PSN1 = test: Cytotoxicity against human PSN1 cells measured after 8 days; type: functional, cell-based; details: PSN1, 192 h
[15] = Cytotoxicity against human SUIT-2 cells measured after 8 days; type: functional, cell-based; details: SUIT-2, 192 h
YAPC = test: Cytotoxicity against human YAPC cells measured after 8 days; type: functional, cell-based; details: 192 h
HT55 = test: Cytotoxicity against human HT55 cells measured after 8 days; type: functional, cell-based; details: HT55, 192 h
RPMI-2650 = test: Cytotoxicity against human RPMI-2650 cells measured after 8 days; type: functional, cell-based; details: RPMI-2650, 192 h
A673 = test: Cytotoxicity against human A673 cells measured after 8 days; type: functional, cell-based; details: A673, 192 h
[16] = Cytotoxicity against human 4498-14745 Mel-BR3 cells measured after 8 days; type: functional, cell-based; details: 4498-14745 Mel-BR3, 192 h
B16-F10 = test: Cytotoxicity against mouse B16-F10 cells measured after 8 days; type: functional, cell-based; details: B16-F10, 192 h
COLO-679 = test: Cytotoxicity against human COLO-679 cells measured after 8 days; type: functional, cell-based; details: COLO-679, 192 h
KYSE-180 = test: Cytotoxicity against human KYSE-180 cells measured after 8 days; type: functional, cell-based; details: KYSE-180, 192 h
OE19 = test: Cytotoxicity against human OE19 cells measured after 8 days; type: functional, cell-based; details: OE19, 192 h
[17] = Cytotoxicity against human COLO 857 cells measured after 8 days; type: functional, cell-based; details: COLO 857, 192 h
[18] = Cytotoxicity against human HSC-5 cells measured after 8 days; type: functional, cell-based; details: HSC-5, 192 h
ACHN = test: Cytotoxicity against human ACHN cells measured after 8 days; type: functional, cell-based; details: 192 h
[19] = Cytotoxicity against human UM-RC-6 cells measured after 8 days; type: functional, cell-based; details: UM-RC-6, 192 h
LOX IMVI = test: Cytotoxicity against human LOX IMVI cells measured after 8 days; type: functional, cell-based; details: 192 h
SK-MEL3 = test: Cytotoxicity against human SK-MEL3 cells measured after 8 days; type: functional, cell-based; details: SK-MEL3, 192 h
SK-HEP1 = test: Cytotoxicity against human SK-HEP1 cells measured after 8 days; type: functional, cell-based; details: SK-HEP1, 192 h
SNU-182 = test: Cytotoxicity against human SNU-182 cells measured after 8 days; type: functional, cell-based; details: SNU-182, 192 h
HGC-27 = test: Cytotoxicity against human HGC-27 cells measured after 8 days; type: functional, cell-based; details: HGC-27, 192 h
NCI-N87 = test: Cytotoxicity against human NCI-N87 cells measured after 8 days; type: functional, cell-based; details: NCI-N87, 192 h
[20] = Cytotoxicity against human SNU-216 cells measured after 8 days; type: functional, cell-based; details: SNU-216, 192 h
[21] = Cytotoxicity against mouse AE17 cells measured after 8 days; type: functional, cell-based; details: AE17, 192 h
CGTH-W-1 = test: Cytotoxicity against human CGTH-W-1 cells measured after 8 days; type: functional, cell-based; details: CGTH-W-1, 192 h
FTC-133 = test: Cytotoxicity against human FTC-133 cells measured after 8 days; type: functional, cell-based; details: FTC-133, 192 h
CAL-27 = test: Cytotoxicity against human CAL-27 cells measured after 8 days; type: functional, cell-based; details: CAL-27, 192 h
[22] = Cytotoxicity against human HCC364 cells measured after 8 days; type: functional, cell-based; details: HCC364, 192 h

TGF-beta receptor type-1 (Homo sapiens), sequence (P36897 whole entry): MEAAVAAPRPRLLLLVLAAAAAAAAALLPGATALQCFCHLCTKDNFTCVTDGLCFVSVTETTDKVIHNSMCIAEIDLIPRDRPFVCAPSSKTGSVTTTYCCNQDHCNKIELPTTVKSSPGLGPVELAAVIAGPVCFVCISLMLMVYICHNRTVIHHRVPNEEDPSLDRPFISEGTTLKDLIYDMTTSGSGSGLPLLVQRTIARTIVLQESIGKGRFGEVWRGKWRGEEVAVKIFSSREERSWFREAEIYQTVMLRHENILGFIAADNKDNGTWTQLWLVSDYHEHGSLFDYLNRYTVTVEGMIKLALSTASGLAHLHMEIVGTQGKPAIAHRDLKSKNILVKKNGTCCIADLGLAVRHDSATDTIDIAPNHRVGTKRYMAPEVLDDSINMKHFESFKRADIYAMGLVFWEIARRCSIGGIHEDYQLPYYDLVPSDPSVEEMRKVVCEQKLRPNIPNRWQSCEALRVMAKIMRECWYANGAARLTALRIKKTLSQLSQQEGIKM

What does the source list for `C/C=C/Cn1cc(-c2cc(OC)c(C(=O)N3CCOCC3)cc2OC)c2cc(C)[nH]c2c1=O`?
Activity (PC-9): inactive; inhibition [1]: -1.5%; IC50 [2]: 5 µM; IC50 (SET-2): 5 µM; IC50 (HepG2): 5 µM; IC50 [3]: 5 µM; IC50 (TMD8): 5 µM; IC50 [4]: 5 µM; IC50 [5]: 5 µM; IC50 (BJAB): 5 µM; IC50 [6]: 5 µM; IC50 (CAMA-1): 5 µM; IC50 (HCC1143): 5 µM; IC50 (MDA-MB-361): 5 µM; IC50 (MCF-10A): 5 µM; IC50 [7]: 5 µM

Which IC50 (BaF3) does the source give for `C/C=C/Cn1cc(-c2ccc(C(C)(C)O)cc2OC)c2cc[nH]c2c1=O` here?
The IC50 was 20 µM.

What about the IC50 [8] of the same molecule?
Its IC50 is 20 µM.

And the IC50 (KG-1)?
The IC50 was 20 µM.

And the IC50 (143B)?
The IC50 was 17.2 µM.

What about the IC50 [9] of the same molecule?
The IC50 was 20 µM.

What about the IC50 (GI-1) of the same molecule?
The IC50 was 20 µM.

And the IC50 (OCI-Ly10)?
Its IC50 is 20 µM.

What about the IC50 (SU-DHL-8) of the same molecule?
Its IC50 is 3.26 µM.

And the IC50 [10]?
The IC50 was 20 µM.

What about the IC50 (KURAMOCHI) of the same molecule?
The IC50 was 20 µM.

And the IC50 (OAW-42)?
The IC50 was 20 µM.

And the IC50 (MDA-MB-453)?
The IC50 was 20 µM.

What about the IC50 (SW982) of the same molecule?
The IC50 was 20 µM.

And the IC50 [11]?
The IC50 was 20 µM.

And the IC50 [12]?
The IC50 was 20 µM.

What about the IC50 [13] of the same molecule?
Its IC50 is 20 µM.

And the IC50 [14]?
The IC50 was 20 µM.

And the IC50 (PSN1)?
Its IC50 is 20 µM.

What about the IC50 [15] of the same molecule?
Its IC50 is 20 µM.

What about the IC50 (YAPC) of the same molecule?
Its IC50 is 20 µM.

What about the IC50 (HT55) of the same molecule?
Its IC50 is 20 µM.

And the IC50 (RPMI-2650)?
The IC50 was 20 µM.

And the IC50 (A673)?
Its IC50 is 20 µM.

And the IC50 [16]?
Its IC50 is 20 µM.

What about the IC50 (B16-F10) of the same molecule?
The IC50 was 20 µM.

And the IC50 (COLO-679)?
Its IC50 is 20 µM.

What about the IC50 (KYSE-180) of the same molecule?
The IC50 was 20 µM.

And the IC50 (OE19)?
The IC50 was 20 µM.

And the IC50 [17]?
The IC50 was 20 µM.

And the IC50 [18]?
The IC50 was 20 µM.

What about the IC50 (ACHN) of the same molecule?
Its IC50 is 20 µM.

And the IC50 [19]?
Its IC50 is 20 µM.

And the IC50 (LOX IMVI)?
Its IC50 is 20 µM.

What about the IC50 (SK-MEL3) of the same molecule?
Its IC50 is 20 µM.

What about the IC50 (SK-HEP1) of the same molecule?
Its IC50 is 20 µM.

And the IC50 (SNU-182)?
Its IC50 is 20 µM.

And the IC50 (HGC-27)?
Its IC50 is 14.4 µM.

What about the IC50 (NCI-N87) of the same molecule?
The IC50 was 20 µM.

What about the IC50 [20] of the same molecule?
The IC50 was 20 µM.

What about the IC50 [21] of the same molecule?
The IC50 was 20 µM.

And the IC50 (CGTH-W-1)?
Its IC50 is 20 µM.

And the IC50 (FTC-133)?
The IC50 was 20 µM.

And the IC50 (CAL-27)?
The IC50 was 20 µM.

What about the IC50 [22] of the same molecule?
Its IC50 is 20 µM.

What about the inhibition [1] of the same molecule?
Its inhibition is 0%.

Which results are given for `C/C=C/Cn1cc(-c2ccc(C(=O)N3CCOCC3)cc2)c2cc[nH]c2c1=O`?
IC50 (BaF3): 20 µM; IC50 [8]: 15.3 µM; IC50 (KG-1): 20 µM; IC50 (143B): 20 µM; IC50 [9]: 20 µM; IC50 (GI-1): 20 µM; IC50 (OCI-Ly10): 20 µM; IC50 (SU-DHL-8): 12.8 µM; IC50 [10]: 20 µM; IC50 (KURAMOCHI): 20 µM; IC50 (OAW-42): 20 µM; IC50 (MDA-MB-453): 20 µM; IC50 (SW982): 20 µM; IC50 [11]: 20 µM; IC50 [12]: 20 µM; IC50 [13]: 20 µM; IC50 [14]: 20 µM; IC50 (PSN1): 20 µM; IC50 [15]: 20 µM; IC50 (YAPC): 20 µM; IC50 (HT55): 20 µM; IC50 (RPMI-2650): 20 µM; IC50 (A673): 20 µM; IC50 [16]: 20 µM; IC50 (B16-F10): 20 µM; IC50 (COLO-679): 20 µM; IC50 (KYSE-180): 20 µM; IC50 (OE19): 20 µM; IC50 [17]: 20 µM; IC50 [18]: 20 µM; IC50 (ACHN): 20 µM; IC50 [19]: 20 µM; IC50 (LOX IMVI): 20 µM; IC50 (SK-MEL3): 20 µM; IC50 (SK-HEP1): 20 µM; IC50 (SNU-182): 20 µM; IC50 (HGC-27): 16.9 µM; IC50 (NCI-N87): 20 µM; IC50 [20]: 20 µM; IC50 [21]: 18.1 µM; IC50 (CGTH-W-1): 20 µM; IC50 (FTC-133): 20 µM; IC50 (CAL-27): 20 µM; IC50 [22]: 20 µM
